The compounds below were run on SH-SY5Y (assay: Cytoprotection of SH-SY5Y cells against veratridine-induced cytotoxicity). Settings: Homo sapiens.
Type: functional, cell-based
Work on `CCCCCC(CCCCC)c1nc(-c2ccc(F)cc2)c[nH]1` yielded an IC50 of 770 nM.
In the case of `CCCCCCc1nc(-c2ccc(-c3ccccc3)cc2)c[nH]1`, the IC50 is reported as 450 nM.
`c1ccc(-c2ccc(-c3c[nH]c(CCC4CCCCC4)n3)cc2)cc1` was tested, and the IC50 was 760 nM.
`CCCC(CCC)c1nc(-c2ccc(C(C)(C)C)cc2)c[nH]1` showed an IC50 of 430 nM.
For `c1ccc(-c2ccc(-c3c[nH]c(CCCC4CCCCC4)n3)cc2)cc1`, the IC50 was 1000 nM.
Compound `CCCCCCc1nc(-c2ccc(CC(C)C)cc2)c[nH]1` has an IC50 of 380 nM.
`CCCCCC(CCCCC)c1nc(-c2ccc(-c3ccccc3)cc2)c[nH]1` gave an IC50 of 810 nM.

Each compound was assayed against Sodium channel alpha subunits; brain (Types I, II, III) (Rattus norvegicus, UniProt P04775+P04774+P08104) (assay: Concentration required to inhibit [3H]BTX binding to Sodium channel of rat brain). Settings: not given.
In the case of `CCCCCC(CCCCC)c1nc(-c2ccc(F)cc2)c[nH]1`, the IC50 is reported as 25 nM.
For `CCCCCCc1nc(-c2ccc(-c3ccccc3)cc2)c[nH]1`, the IC50 was 16 nM.
Compound `CCCC(CCC)c1nc(-c2ccc(-c3ccc(Br)cc3)cc2)c[nH]1` has an IC50 of 322 nM.
In the case of `CCCC(CCC)c1nc(-c2ccc(-c3ccccc3)cc2)c[nH]1`, the IC50 is reported as 100 nM.
For `CCCC(CCC)c1nc(-c2ccc(F)cc2)c[nH]1`, the IC50 was 518 nM.
In the case of `c1ccc(-c2ccc(-c3c[nH]c(CCC4CCCCC4)n3)cc2)cc1`, the IC50 is reported as 26 nM.
With `CCCCCC(CCCCC)c1nc(-c2ccccc2)c[nH]1` the IC50 was 86 nM.
For `CCCC(CCC)c1nc(-c2ccc(C(C)(C)C)cc2)c[nH]1`, the IC50 was 30 nM.
In the case of `c1ccc(-c2c[nH]c([C@H]3Cc4c([nH]c5ccccc45)[C@@H](c4ccccc4)N3)n2)cc1`, the IC50 is reported as 1460 nM.
`Cc1nc(-c2ccc(-c3ccccc3)cc2)c[nH]1` showed an IC50 of 1460 nM.
Compound `c1ccc(-c2ccc(-c3c[nH]c(CCCC4CCCCC4)n3)cc2)cc1` has an IC50 of 19 nM.
With `CCCCCCc1nc(-c2ccc(CC(C)C)cc2)c[nH]1` the IC50 was 28 nM.
Compound `CCCCCC(CCCCC)c1nc(-c2ccc(-c3ccccc3)cc2)c[nH]1` has an IC50 of 8 nM.
Work on `c1ccc(-c2ccc(-c3c[nH]c(CC4CCCCC4)n3)cc2)cc1` yielded an IC50 of 70 nM.
`Fc1ccc(-c2c[nH]c(CC3CCCCC3)n2)cc1` was tested, and the IC50 was 146 nM.
With `NC(=O)N1c2ccccc2C=Cc2ccccc21` [CARBAMAZEPINE] the IC50 was 167000 nM.
For `Nc1nnc(-c2cccc(Cl)c2Cl)c(N)n1` [LAMOTRIGINE], the IC50 was 31000 nM.
`CCN(CC)CC(=O)Nc1c(C)cccc1C` [LIDOCAINE] showed an IC50 of 56000 nM.

Source: ChEMBL document CHEMBL1147475, “2-Alkyl-4-arylimidazoles: structurally novel sodium channel modulators” (Bioorg Med Chem Lett, 2004)
